Here are results for 2 compounds from patent publication US20070154962A1, “Bcl-2 promoted cell death” (priority 2005, published 2007).

What all share (type): cell-based
Test [1] deals with PC12 cells. The test can be described thus: Flow cytometry of sub-G1 nuclei from PC12 cells transiently transfected with Bcl-2-GFP and exposed to H2O2. As to conditions: treated cells compared with untreated controls; FIG. 5. An excerpt: FIG. 5: Flow cytometry measuring apoptotic cells from PC12 cells transiently transfected with Bcl-2-GFP with and without H2O2 treatment.
An alternative explanation would be that Bcl-2 relocates to the nucleus in response to apoptosis. […] However, there was no increase in the percent of sub-G1 nuclei carrying Bcl-2-GFP in cells treated with H2O2 as compared to untreated cells. In fact, there was a paradoxical decrease, which is expected if one appreciates that the number of sub-G1 nuclei increased after H2O2 treatment without a concomitant increase of nuclear Bcl-2-GFP. Therefore, nuclear association of Bcl-2 was […] apoptosis.
For orientation: A flow cytometer gives signals particle by particle.

The test system of test [2] is PC12 cells. Briefly: Cell survival of naive PC12 cells transiently co-transfected with Bcl-2 or vector and BH4 or BH4Gly. As to conditions: transient (24 hr) transfection of the BH4 vector alone, without Bcl-2, FIG. 20. As for the experimental part: FIG. 20: Cell survival was measured in PC12 cells transiently co-transfected with Bcl-2 or vector, and either vector, BH4 or BH4Gly.
(§1) The overall rationale of the experiment was to determine if domain interference disrupted Bcl-2/FKBP38 binding, changed Bcl-2's cellular localization (i.e., result in Bcl-2 misplacement at the nucleus) and ultimately promoted Bcl-2-triggered apoptosis. […] The rationale for using a peptide larger that the BH4 domain itself was to provide structure stability to the alpha-helix of the BH4 domain (AA 11-25) through sufficient flanking regions. Cells were further co-transfected with renilla luciferase so as to determine the extent of their survival. […] It is important to note that PC12 cells expressing Bcl-2 cells diddo not depend on Bcl-2 for their survival and therefore the effect of the BH4 peptide was not due to abolishment of Bcl-2 protection. Rather, it reflected an active induction of apoptosis by Bcl-2, triggered by the BH4 peptide. The possibility that PC12 cells expressing Bcl-2 may have undergone selection during the establishment of stable transfection that could have rendered them non-specifically sensitive to the BH4 peptide was excluded.

For test [3], the system named is Human leukemia cells (HL-60). The test can be described thus: Cell death as LDH release in HL-60 cells transiently transfected with BH4 peptide-expressing vector. As to conditions: HL-60, 48 after transfection, vs. Flag or BH4Gly; FIG. 24. The protocol:
The extent of cell death was assessed 48 after transfection as release of LDH in the cell culture medium.
The extent of cell death was assessed 48 after transfection as release of LDH in the cell culture medium. Statistical difference was vs. Flag or BH4Gly (Two-tailed Student “t” test; N=4-7 independent measurements per group).
(Release of lactate dehydrogenase indicates damage to the cell membrane.)

Test [4] relates to PC12 cells stably expressing vector or Bcl-2. Briefly: Cell survival (renilla luciferase) of stably transfected PC12 cells transiently transfected with BH4 peptide vector. As to conditions: FIG. 19. As for the experimental part: FIG. 19: Cell survival was measured in PC12 cells stably expressing vector or Bcl-2. These two cell lines were transiently co-transfected with luciferase and either vector, BH4 domain, or BH4Gly.
as §1

Consider `OO` [H2O2], for which the “sub-G1 (apoptotic) nuclei” value in the test on PC12 cells [1] was “substantial increase”.

For “BH4 peptide: vector-expressed peptide identical to the N-terminal 30 amino acids of Bcl-2, including the 11-25 BH4 domain (MAHAGRTGYDNREIVMKYIHYKLSQRGYEW; UniProt P10415 1-30, looked up, fragment)”, the cell survival entry in the test with PC12 cells [2] is given as “did not affect cell survival”. For the same compound, the “cell death (release of LDH in the cell culture medium)” value in test [3] is “effective in inducing cell death”. Also, in test [4] (PC12 cells not expressing Bcl-2 (empty vector pmKitNeo)), the “induction of apoptosis / survival” value is listed as “unaffected”. Further, the “survival of cells (renilla luciferase)” value in test [4] (PC12 cells stably expressing Bcl-2, compared with BH4-transfected cells stably expressing empty pmKitNeo) is “significantly lower”.
